Data on 16 compounds can be found in ChEMBL document CHEMBL3352570, “ST7612AA1, a thioacetate-ω(γ-lactam carboxamide) derivative selected from a novel generation of oral HDAC inhibitors” (J Med Chem, 2014).

For one assay, the target named is T1, Histone deacetylase 11 (Homo sapiens, UniProt Q96DB2).
T1 sequence (Q96DB2 whole entry): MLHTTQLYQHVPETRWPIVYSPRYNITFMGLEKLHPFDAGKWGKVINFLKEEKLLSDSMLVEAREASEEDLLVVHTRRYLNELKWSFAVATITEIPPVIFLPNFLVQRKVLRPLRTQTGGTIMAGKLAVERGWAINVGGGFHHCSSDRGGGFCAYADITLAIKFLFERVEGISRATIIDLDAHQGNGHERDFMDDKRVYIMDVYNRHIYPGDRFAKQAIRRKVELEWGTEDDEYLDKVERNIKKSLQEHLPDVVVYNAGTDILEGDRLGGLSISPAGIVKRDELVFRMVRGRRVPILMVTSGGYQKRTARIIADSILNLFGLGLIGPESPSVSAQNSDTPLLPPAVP
In words: Inhibition of HDAC11 (unknown origin) using fluorogenic tetrapeptide RHKK(Ac) substrate by fluorescence assay.

A further assay addresses T2, Histone deacetylase 8 (Homo sapiens, UniProt Q9BY41).
T2 sequence (Q9BY41 whole entry): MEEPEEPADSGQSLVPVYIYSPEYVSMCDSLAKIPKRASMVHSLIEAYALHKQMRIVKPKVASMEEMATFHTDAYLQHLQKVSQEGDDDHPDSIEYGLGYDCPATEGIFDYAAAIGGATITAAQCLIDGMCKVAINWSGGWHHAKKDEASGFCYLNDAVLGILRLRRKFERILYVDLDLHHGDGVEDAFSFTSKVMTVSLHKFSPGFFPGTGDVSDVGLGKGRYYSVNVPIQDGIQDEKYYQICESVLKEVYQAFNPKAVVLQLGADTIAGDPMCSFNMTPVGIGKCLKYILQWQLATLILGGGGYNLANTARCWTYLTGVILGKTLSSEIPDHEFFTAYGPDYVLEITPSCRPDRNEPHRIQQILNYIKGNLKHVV
Put plainly: Inhibition of HDAC8 (unknown origin) using fluorogenic tetrapeptide RHK(Ac)K(Ac) substrate by fluorescence assay.

Assay [1] concerns the target T3, Protein deacetylase HDAC6 (Homo sapiens, UniProt Q9UBN7).
T3 sequence (Q9UBN7 whole entry): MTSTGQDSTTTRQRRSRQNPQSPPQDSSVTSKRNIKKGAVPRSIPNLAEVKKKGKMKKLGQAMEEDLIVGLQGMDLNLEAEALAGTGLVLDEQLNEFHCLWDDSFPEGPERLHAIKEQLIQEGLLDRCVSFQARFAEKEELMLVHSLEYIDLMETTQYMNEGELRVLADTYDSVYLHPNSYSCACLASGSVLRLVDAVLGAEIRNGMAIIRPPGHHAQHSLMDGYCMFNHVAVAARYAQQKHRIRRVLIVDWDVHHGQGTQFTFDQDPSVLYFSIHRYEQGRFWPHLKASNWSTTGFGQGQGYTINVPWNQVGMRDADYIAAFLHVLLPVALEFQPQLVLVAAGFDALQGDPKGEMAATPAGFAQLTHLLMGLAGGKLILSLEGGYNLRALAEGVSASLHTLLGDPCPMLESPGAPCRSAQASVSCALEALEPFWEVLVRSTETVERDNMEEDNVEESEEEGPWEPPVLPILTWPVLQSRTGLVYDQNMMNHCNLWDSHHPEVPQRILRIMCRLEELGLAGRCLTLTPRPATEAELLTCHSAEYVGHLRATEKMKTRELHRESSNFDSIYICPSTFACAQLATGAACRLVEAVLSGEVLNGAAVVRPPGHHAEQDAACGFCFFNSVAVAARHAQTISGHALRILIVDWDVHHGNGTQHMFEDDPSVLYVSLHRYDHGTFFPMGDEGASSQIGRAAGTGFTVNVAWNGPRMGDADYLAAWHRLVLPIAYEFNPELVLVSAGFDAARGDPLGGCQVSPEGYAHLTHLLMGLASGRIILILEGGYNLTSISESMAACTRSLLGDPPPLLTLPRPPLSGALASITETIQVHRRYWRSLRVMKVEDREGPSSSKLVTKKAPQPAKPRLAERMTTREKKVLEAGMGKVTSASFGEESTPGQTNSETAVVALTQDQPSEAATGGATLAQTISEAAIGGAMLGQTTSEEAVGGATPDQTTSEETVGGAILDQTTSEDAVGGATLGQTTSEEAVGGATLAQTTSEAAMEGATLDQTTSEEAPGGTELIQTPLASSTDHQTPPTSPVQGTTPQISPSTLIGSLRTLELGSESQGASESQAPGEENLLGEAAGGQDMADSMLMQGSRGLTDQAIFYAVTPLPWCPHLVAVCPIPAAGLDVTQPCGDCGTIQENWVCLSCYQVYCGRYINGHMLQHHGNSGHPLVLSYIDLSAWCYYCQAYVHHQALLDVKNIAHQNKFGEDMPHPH
In words: Inhibition of HDAC6 (unknown origin) using fluorogenic tetrapeptide RHKK(Ac) substrate by fluorescence assay.

For assay [2], the target named is T4, Polyamine deacetylase HDAC10 (Homo sapiens, UniProt Q969S8).
T4 sequence (Q969S8 whole entry): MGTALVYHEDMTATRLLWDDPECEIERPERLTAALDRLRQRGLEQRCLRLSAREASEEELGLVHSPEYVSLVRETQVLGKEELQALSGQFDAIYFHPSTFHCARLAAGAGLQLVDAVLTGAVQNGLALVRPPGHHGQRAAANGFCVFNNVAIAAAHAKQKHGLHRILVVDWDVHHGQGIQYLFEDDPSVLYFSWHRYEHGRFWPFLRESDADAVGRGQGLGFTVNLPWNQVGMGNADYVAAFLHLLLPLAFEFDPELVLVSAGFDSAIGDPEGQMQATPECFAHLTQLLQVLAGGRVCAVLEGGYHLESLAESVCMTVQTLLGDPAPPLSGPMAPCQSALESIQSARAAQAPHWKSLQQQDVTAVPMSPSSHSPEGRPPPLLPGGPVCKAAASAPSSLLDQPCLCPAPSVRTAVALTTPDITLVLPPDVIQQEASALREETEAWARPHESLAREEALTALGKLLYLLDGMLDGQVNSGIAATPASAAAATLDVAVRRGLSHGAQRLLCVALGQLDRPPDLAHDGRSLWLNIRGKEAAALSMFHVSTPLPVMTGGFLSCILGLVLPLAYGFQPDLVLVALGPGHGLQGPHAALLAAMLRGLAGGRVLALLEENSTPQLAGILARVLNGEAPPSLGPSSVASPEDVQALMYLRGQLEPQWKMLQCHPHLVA
Put plainly: Inhibition of HDAC10 (unknown origin) using fluorogenic tetrapeptide RHKK(Ac) substrate by fluorescence assay.

The target in another assay is Histone deacetylase 3 (Homo sapiens, UniProt O15379). In words: Inhibition of HDAC3 (unknown origin) using fluorogenic tetrapeptide RHKK(Ac) substrate by fluorescence assay.
The next assay addresses Histone deacetylase 1 (Homo sapiens, UniProt Q13547). In words: Inhibition of HDAC1 (unknown origin) using fluorogenic tetrapeptide RHKK(Ac) substrate by fluorescence assay.
Another assay has as its target Histone deacetylase 2 (Homo sapiens, UniProt Q92769). In words: Inhibition of HDAC2 (unknown origin) using fluorogenic tetrapeptide RHKK(Ac) substrate by fluorescence assay.

Chain of Histone deacetylase 2 (Q92769 whole entry): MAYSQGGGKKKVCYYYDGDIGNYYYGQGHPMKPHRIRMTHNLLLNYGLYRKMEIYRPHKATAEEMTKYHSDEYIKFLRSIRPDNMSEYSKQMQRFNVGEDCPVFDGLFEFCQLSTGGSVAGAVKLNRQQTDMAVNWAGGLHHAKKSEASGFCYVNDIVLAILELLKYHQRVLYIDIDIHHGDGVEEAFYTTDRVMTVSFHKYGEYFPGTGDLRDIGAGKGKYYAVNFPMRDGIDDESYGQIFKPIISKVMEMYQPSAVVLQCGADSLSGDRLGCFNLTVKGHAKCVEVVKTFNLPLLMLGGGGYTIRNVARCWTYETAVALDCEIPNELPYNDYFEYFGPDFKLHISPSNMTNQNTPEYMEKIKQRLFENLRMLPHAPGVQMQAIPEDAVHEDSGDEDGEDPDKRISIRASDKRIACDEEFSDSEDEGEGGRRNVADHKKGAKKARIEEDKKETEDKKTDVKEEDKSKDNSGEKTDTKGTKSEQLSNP
Chain of Histone deacetylase 1 (Q13547 whole entry): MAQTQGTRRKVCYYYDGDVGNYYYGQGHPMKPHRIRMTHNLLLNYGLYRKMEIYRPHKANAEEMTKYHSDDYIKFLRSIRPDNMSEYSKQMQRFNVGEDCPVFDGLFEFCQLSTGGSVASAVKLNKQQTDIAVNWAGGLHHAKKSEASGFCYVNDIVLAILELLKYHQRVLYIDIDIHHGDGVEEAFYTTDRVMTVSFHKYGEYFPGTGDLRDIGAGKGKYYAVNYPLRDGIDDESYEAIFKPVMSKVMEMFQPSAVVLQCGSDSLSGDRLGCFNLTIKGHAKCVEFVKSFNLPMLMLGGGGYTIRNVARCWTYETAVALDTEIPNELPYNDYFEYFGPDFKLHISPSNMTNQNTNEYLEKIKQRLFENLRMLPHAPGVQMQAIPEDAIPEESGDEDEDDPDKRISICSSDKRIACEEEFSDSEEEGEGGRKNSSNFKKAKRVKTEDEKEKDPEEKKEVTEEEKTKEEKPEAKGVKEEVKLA
Chain of Histone deacetylase 3 (O15379 whole entry): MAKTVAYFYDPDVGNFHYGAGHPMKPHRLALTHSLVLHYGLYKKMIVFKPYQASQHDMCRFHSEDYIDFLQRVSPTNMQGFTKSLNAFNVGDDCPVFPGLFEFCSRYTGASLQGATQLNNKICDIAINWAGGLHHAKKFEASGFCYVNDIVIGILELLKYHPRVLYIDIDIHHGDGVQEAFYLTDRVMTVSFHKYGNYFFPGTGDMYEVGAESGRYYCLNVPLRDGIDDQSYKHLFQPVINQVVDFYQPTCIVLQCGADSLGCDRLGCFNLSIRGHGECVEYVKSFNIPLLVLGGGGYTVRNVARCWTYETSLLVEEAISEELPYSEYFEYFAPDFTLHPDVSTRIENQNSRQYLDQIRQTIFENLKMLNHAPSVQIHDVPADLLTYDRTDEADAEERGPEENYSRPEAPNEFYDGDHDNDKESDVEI

For the compound `O=C(CCCCCCS)NCc1cccc(OCc2ccccc2)c1`, the IC50 against Histone deacetylase 11 amounted to 1840 nM; on Histone deacetylase 8 it was 904 nM; in assay [1], 1770 nM; in assay [2], 2990 nM; at Histone deacetylase 3, 2950 nM; at Histone deacetylase 1, 3160 nM. The compound also came in with a half-maximal inhibitory concentration (IC50) on Histone deacetylase 2 of 14000 nM.

Regarding `O=C1CCC[C@H](C(=O)N[C@@H](CCCCCS)C(=O)Nc2ccccc2)N1`, the IC50 against Histone deacetylase 11 amounted to 10 nM; on Histone deacetylase 8, 107 nM; in assay [1], 5 nM; in assay [2], 32 nM; on Histone deacetylase 3 it was 6 nM; at Histone deacetylase 1 it was 10 nM. At Histone deacetylase 2, this compound registered a half-inhibitory concentration (IC50) of 34 nM.

With `O=C1NCCC[C@@H]1C(=O)N[C@@H](CCCCCS)C(=O)Nc1ccccc1`, the IC50 against Histone deacetylase 11 turned out to be 15 nM; on Histone deacetylase 8, 122 nM; in assay [1], 1 nM; in assay [2] it was 11 nM; at Histone deacetylase 3, 5 nM; at Histone deacetylase 1 it was 12 nM. The compound also returned an IC50 at Histone deacetylase 2 of 48 nM.

As to `O=C1CC[C@@H](C(=O)N[C@@H](CCCCCS)C(=O)Nc2ccccc2)N1`, the half-inhibitory concentration (IC50) worked out at 30 nM against Histone deacetylase 11; 59 nM against Histone deacetylase 8; 1 nM in assay [1]; 15 nM in assay [2]; 13 nM against Histone deacetylase 3; 24 nM on Histone deacetylase 1. The same compound gave an IC50 on Histone deacetylase 2 of 33 nM.

Regarding `CN1C(=O)CC[C@@H]1C(=O)N[C@@H](CCCCCS)C(=O)Nc1ccccc1`, the 50% inhibitory concentration (IC50) against Histone deacetylase 11 is 67 nM; against Histone deacetylase 8, 545 nM; in assay [1], 5 nM; in assay [2] it was 116 nM; at Histone deacetylase 3, 49 nM; against Histone deacetylase 1, 58 nM. Moreover, the half-inhibitory concentration (IC50) on Histone deacetylase 2 was 103 nM.

In the case of `Cc1ccc(NC(=O)[C@H](CCCCCS)NC(=O)[C@@H]2CCCC(=O)N2)cc1`, the half-maximal inhibitory concentration (IC50) was 3 nM against Histone deacetylase 11; 360 nM against Histone deacetylase 8; 2 nM in assay [1]; 4 nM in assay [2]; 3 nM against Histone deacetylase 3; 8 nM against Histone deacetylase 1. Half-maximal inhibition against Histone deacetylase 2 (IC50) was put at 60 nM.

Take `O=C1NCCC[C@H]1C(=O)N[C@@H](CCCCCS)C(=O)Nc1ccccc1`: the IC50 against Histone deacetylase 11 came out at 9 nM; against Histone deacetylase 8, 62 nM; in assay [1], 1 nM; in assay [2], 9 nM; against Histone deacetylase 3, 3 nM; at Histone deacetylase 1, 7 nM. The compound also came in with an IC50 at Histone deacetylase 2 of 28 nM.

With `O=C1CCC[C@@H](C(=O)N[C@@H](CCCCCS)C(=O)Nc2ccccc2)N1`, the IC50 against Histone deacetylase 11 came to 6 nM; against Histone deacetylase 8, 416 nM; in assay [1], 6 nM; in assay [2] it was 11 nM; against Histone deacetylase 3, 10 nM; against Histone deacetylase 1, 15 nM. This compound showed a half-inhibitory concentration (IC50) on Histone deacetylase 2 of 67 nM.

Turning to `O=C1CCC[C@@H](C(=O)N[C@@H](CCCCCS)C(=O)NCc2cccc(OCc3ccccc3)c2)N1`, the half-maximal inhibitory concentration (IC50) against Histone deacetylase 11 came out at 293 nM; against Histone deacetylase 8, 9 nM; in assay [1], 83 nM; in assay [2] it was 658 nM; at Histone deacetylase 3 it was 495 nM; at Histone deacetylase 1 it was 504 nM. Moreover, at Histone deacetylase 2, the IC50 came to 2540 nM.

Regarding `Cc1cccc(NC(=O)[C@H](CCCCCS)NC(=O)[C@H]2CCC(=O)N2C)c1`, the IC50 was 12 nM on Histone deacetylase 11; 99 nM against Histone deacetylase 8; 1 nM in assay [1]; 2 nM in assay [2]; 5 nM at Histone deacetylase 3; 3 nM against Histone deacetylase 1. Besides, on Histone deacetylase 2, the IC50 was 5 nM.

Consider `O=C(CCCCCCS)NC1CCCC1`, for which the IC50 against Histone deacetylase 11 turned out to be 776 nM; at Histone deacetylase 8 it was 2330 nM; in assay [1] it was 87 nM; in assay [2], 1170 nM; against Histone deacetylase 3, 897 nM; on Histone deacetylase 1, 865 nM. Moreover, at Histone deacetylase 2, the IC50 was 6640 nM.

`CN1C(=O)CCC[C@H]1C(=O)N[C@@H](CCCCCS)C(=O)Nc1ccccc1`: the IC50 is 5 nM at Histone deacetylase 11; 202 nM against Histone deacetylase 8; 3 nM in assay [1]; 6 nM in assay [2]; 7 nM against Histone deacetylase 3; 11 nM against Histone deacetylase 1. Besides, the IC50 against Histone deacetylase 2 was 70 nM.

As for `O=C1NC[C@@H](c2ccccc2)[C@@H]1C(=O)N[C@@H](CCCCCS)C(=O)Nc1ccccc1`, the IC50 was 4 nM against Histone deacetylase 11; 40 nM on Histone deacetylase 8; 4 nM in assay [1]; 5 nM in assay [2]; 2 nM against Histone deacetylase 3; 7 nM against Histone deacetylase 1. The compound also showed a half-inhibitory concentration (IC50) at Histone deacetylase 2 of 37 nM.

For `O=C1CC[C@H](C(=O)N[C@@H](CCCCCS)C(=O)Nc2cccc(C(F)(F)F)c2)N1`, the IC50 at Histone deacetylase 11 amounted to 44 nM; against Histone deacetylase 8, 316 nM; in assay [1], 5 nM; in assay [2] it was 7 nM; against Histone deacetylase 3 it was 11 nM; against Histone deacetylase 1, 5 nM. Moreover, half-maximal inhibition at Histone deacetylase 2 (IC50) required 12 nM.

`O=C1CCC[C@@H](C(=O)N[C@@H](CCCCCS)C(=O)NCc2ccc(C(F)(F)F)cc2)N1`: the IC50 is 140 nM at Histone deacetylase 11; 23 nM at Histone deacetylase 8; 139 nM in assay [1]; 310 nM in assay [2]; 475 nM on Histone deacetylase 3; 386 nM at Histone deacetylase 1. The compound also showed a 50% inhibitory concentration (IC50) on Histone deacetylase 2 of 1770 nM.

As to `O=C1CC[C@H](C(=O)N[C@H](CCCCCS)C(=O)Nc2ccccc2)N1`, the IC50 came out at 102 nM at Histone deacetylase 11; 8100 nM at Histone deacetylase 8; 21 nM in assay [1]; 40 nM in assay [2]; 138 nM at Histone deacetylase 3; 101 nM against Histone deacetylase 1. On Histone deacetylase 2, 171 nM corresponded to half-maximal inhibition (IC50).

Broadly, the IC50 is the concentration that gives 50% inhibition. Higher therefore signals a need for much substance.
